PMC3230241 (Nature biotechnology, 2011)

Molecular target: CHK2 (Homo sapiens, UniProt O96017)
Assay: HotSpot radiometric kinase assay, CHK2
Assay type: biochemical
Settings: compound 0.5 μM, 10 μM ATP; Fig. 4b

Chain of CHK2 (O96017 whole entry): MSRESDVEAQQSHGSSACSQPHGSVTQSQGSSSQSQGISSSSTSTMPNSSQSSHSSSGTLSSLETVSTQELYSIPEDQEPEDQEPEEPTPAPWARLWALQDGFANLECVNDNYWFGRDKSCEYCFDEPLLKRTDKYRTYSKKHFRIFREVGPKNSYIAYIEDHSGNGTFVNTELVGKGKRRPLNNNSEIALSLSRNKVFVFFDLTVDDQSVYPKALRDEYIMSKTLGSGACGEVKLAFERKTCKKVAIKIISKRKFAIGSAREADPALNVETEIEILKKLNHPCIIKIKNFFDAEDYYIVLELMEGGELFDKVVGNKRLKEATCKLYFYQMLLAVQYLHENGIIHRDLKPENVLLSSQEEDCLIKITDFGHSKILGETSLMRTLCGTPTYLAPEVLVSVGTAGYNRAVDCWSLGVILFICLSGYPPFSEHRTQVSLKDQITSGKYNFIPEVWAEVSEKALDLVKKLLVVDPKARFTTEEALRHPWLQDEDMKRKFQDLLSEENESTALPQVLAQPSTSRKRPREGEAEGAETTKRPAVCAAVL

inhibition of CHK2: potent inhibition
SMILES: COc1cc2ncnc(Nc3ccc(OCc4ccccc4)cc3)c2cc1OC [EGFR/ErbB-2 Inhibitor, 4-(4-benzyloxyanilino)-6,7-dimethoxyquinazoline]
